Read-outs that look alike come from different tables or passages of the source.
Target: T1, Bombyx mori EcR (VP16 fusion, CVBE switch construct) (Bombyx mori, UniProt P49881)
T1 sequence (P49881 86-606): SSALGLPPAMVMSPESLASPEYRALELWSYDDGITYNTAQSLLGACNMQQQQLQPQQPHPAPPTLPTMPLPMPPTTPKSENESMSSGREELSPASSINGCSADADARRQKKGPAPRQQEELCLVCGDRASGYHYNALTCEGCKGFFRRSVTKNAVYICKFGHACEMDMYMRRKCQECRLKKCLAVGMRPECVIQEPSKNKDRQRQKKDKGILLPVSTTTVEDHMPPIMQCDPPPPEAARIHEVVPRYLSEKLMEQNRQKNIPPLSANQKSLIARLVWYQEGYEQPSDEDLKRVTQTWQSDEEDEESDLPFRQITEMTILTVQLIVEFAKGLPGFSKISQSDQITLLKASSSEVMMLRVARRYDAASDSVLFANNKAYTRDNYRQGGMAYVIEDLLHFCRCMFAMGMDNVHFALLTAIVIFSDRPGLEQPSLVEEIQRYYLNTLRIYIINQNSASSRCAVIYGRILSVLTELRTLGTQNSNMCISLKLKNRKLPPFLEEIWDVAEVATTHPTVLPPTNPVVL
T1 sequence (P19793 1-462 partner): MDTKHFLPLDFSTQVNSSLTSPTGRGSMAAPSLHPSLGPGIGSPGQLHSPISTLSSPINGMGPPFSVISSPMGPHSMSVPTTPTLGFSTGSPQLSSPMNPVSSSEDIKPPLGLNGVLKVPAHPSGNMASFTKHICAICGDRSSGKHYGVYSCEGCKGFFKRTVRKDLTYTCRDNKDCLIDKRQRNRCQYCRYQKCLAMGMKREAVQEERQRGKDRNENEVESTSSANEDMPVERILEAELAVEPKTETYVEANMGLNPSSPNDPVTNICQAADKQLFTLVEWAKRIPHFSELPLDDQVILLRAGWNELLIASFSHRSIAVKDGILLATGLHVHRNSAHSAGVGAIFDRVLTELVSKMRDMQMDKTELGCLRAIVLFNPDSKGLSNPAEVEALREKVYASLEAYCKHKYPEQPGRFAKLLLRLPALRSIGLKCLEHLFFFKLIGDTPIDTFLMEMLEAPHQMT
Experiment: Z3 Assay (HEK-293 cells with CVBE and 6XEcRE LacZ, β-galactosidase reporter)
Details: for fold induction at 3.3 µM: HEK293, read-out: Fold Induction, Z3 Assay, 3.3 uM; for fold induction at 33 µM: HEK293, read-out: Fold Induction, Z3 Assay, 33 uM; for Z3 assay Rel Max FI: maximum fold induction at any concentration relative to that of GS-E ligand; for Fold Induction, Z3 Assay, 3.3 uM: 3.3 uM ligand; for Fold Induction, Z3 Assay, 3.3 uM / Fold Induction, Z3 Assay, 33 uM: ligand treated / DMSO treated cells; for Fold Induction, Z3 Assay, 33 uM: 33 uM ligand

[1] = read-out: Z3 assay EC50, HEK-293 Z3 cells, β-galactosidase reporter, average of two wells

SMILES	EC50 [nM]	fold induction at 3.3 µM	fold induction at 33 µM	Z3 assay Rel Max FI (HEK-293 Z3 cells)	Fold Induction, Z3 Assay, 3.3 uM (average of two wells)	Fold Induction, Z3 Assay, 33 uM (average of two wells)	EC50 [1] [nM]
CCc1c(OC)cccc1C(=O)NN(C(=O)c1cc(C)cc(C)c1)C(C)(C)C=O [RG-115407, 2-ethyl-3-methoxy-benzoic acid N′-(3,5-dimethyl-benzoyl)-N′-(1,1-dimethyl-2-oxo-ethyl)-hydrazide]	347	391	879	0.906	–	–	–
Cc1c(C(=O)NN(C(=O)c2ccc(F)c(F)c2)C(C)(C)C)ccc2c1CCCO2 [RG-115416]	–	–	–	1.869	164	1116	91
Cc1ccc(F)c(C(=O)N(NC(=O)c2ccc3c(c2C)CCCO3)C(C)(C)C)c1 [RG-115499]	–	–	–	0.954	173	641	170
CCc1c(C(=O)NN(C(=O)c2cc(F)ccc2F)C(C)(C)C)ccc2c1OCCO2 [RG-115508]	–	–	–	0.787	199	680	537
CCc1c(OC)cccc1C(=O)NN(C(=O)c1cc(C)cc(C)c1)C(C)(C)C=NCCO [RG-115511]	–	–	–	0.66	10	570	39000
CCc1c(C(=O)NN(C(=O)c2ccc(Cl)cc2F)C(C)(C)C)ccc2c1OCCO2 [RG-115514]	–	–	–	0.970	383	658	56
COc1ccc(C(=O)N(NC(=O)c2ccc3c(c2C)OCCO3)C(C)(C)C)c(OC)n1 [RG-115517, 2,6-dimethoxy-nicotinic acid N-tert-butyl-N′-(5-methyl-2,3-dihydro-benzo[1,4]dioxine-6-carbonyl)-hydrazide]	89	408	–	0.923	–	–	–
Cc1c(C(=O)NN(C(=O)c2cc(F)c(F)c(F)c2F)C(C)(C)C)ccc2c1CCCO2 [RG-115518]	–	–	–	0.834	232	803	257
Cc1c(C(=O)NN(C(=O)c2cc(F)c(Cl)cc2Cl)C(C)(C)C)ccc2c1CCCO2 [RG-115539]	–	–	–	–	–	339	151
COc1ccc(Cl)cc1C(=O)N(NC(=O)c1ccc2c(c1C)CCCO2)C(C)(C)C [RG-115551]	–	–	–	–	–	470	398
Cc1c(C(=O)NN(C(=O)c2cc(F)c(F)c(F)c2)C(C)(C)C)ccc2c1CCCO2 [RG-115575, 3,4,5-Trifluoro-benzoic acid N-tert-butyl-N′-(5-methyl-chroman-6-carbonyl)-hydrazide]	102	282	785	0.886	–	–	–
CCc1c(C(=O)NN(C(=O)c2ccc(F)c(F)c2F)C(C)(C)C)ccc2c1OCCO2 [RG-115580]	–	–	–	–	–	615	182
COc1cnccc1C(=O)N(NC(=O)c1cccc(O)c1C)C(C)(C)C [RG-115595]	–	–	–	0.686	44	1067	5620
CCc1c(OC)cccc1C(=O)NN(C(=O)c1cc(C)cc(C)c1)C(C)(C)C=NNC(=O)C(N)=O [RG-115597, oxamic carbazide of 2-ethyl-3-methoxy-benzoic acid N′-(3,5-dimethyl-benzoyl)-N′-(1,1-dimethyl-2-oxo-ethyl)-hydrazide]	–	–	–	–	–	942	–
CCc1c(OC)cccc1C(=O)NN(C(=O)c1cc(C)cc(C=NNC(=O)C(N)=O)c1)C(C)(C)C [RG-115613, oxamic hydrazone of N-(3-formyl-5-methyl-benzoyl)-N-tert-butyl-N′-(2-ethyl-3-methoxy-benzoyl) hydrazide]	–	–	–	0.964	991	1469	589
COc1cc(C(=O)N(NC(=O)c2ccc3c(c2C)OCCO3)C(C)(C)C)cc(OC)c1C [RG-115637, 5-Methyl-2,3-dihydro-benzo[1,4]dioxine-6-carboxylic acid N′-tert-butyl-N′-(3,5-dimethoxy-4-methyl-benzoyl)-hydrazide]	18	211	–	0.947	–	–	–
CCc1c(OC)cccc1C(=O)NN(C(=O)c1ccc(Cl)cc1[N+](=O)[O-])C(C)(C)C [RG-115647]	–	–	–	0.923	96	510	145
CCc1c(OC)cccc1C(=O)NN(C(=O)c1cc(C)cc(C)c1)C(C)(C)C=NNC(N)=O [RG-115653, semicarbazide of 2-ethyl-3-methoxy-benzoic acid N′-(3,5-dimethyl-benzoyl)-N′-(1,1-dimethyl-2-oxo-ethyl)-hydrazide]	–	–	–	–	–	666	–
Cc1ccc([N+](=O)[O-])c(C(=O)N(NC(=O)c2ccc3c(c2C)CCCO3)C(C)(C)C)c1 [RG-115664]	–	–	–	0.846	209	620	126
CCc1c(OC)cccc1C(=O)NN(C(=O)c1cc(C)cc(C)c1)C(C)(C)CO[Si](C)(C)C(C)(C)C [RG-115665, 2-ethyl-3-methoxy-benzoic acid N′-[2-(tert-butyl-dimethyl-silanyloxy)-1,1-dimethyl-ethyl]-N′-(3,5-dimethyl-benzoyl)-hydrazide]	12200	6	74	0.09	–	–	–
CCC(N(NC(=O)c1cccc(OC)c1C)C(=O)c1cc(C)cc(C)c1)C(C)(C)C (centres unmarked) [RG-115819, 3,5-dimethyl-benzoic acid N-(1-ethyl-2,2-dimethyl-propyl)-N′-(3-methoxy-2-methyl-benzoyl)-hydrazide]	42	1430	722	0.915	–	–	–
CCC(N(NC(=O)c1cccc(OC)c1C)C(=O)c1cc(OC)c(C)c(OC)c1)C(C)(C)C (centres unmarked) [RG-115820, 3,5-dimethoxy-4-methyl-benzoic acid N-(1-ethyl-2,2-dimethyl-propyl)-N′-(3-methoxy-2-methyl-benzoyl)-hydrazide]	203	1410	701	0.887	–	–	–
CCCC(N(NC(=O)c1cccc(OC)c1C)C(=O)c1cc(C)cc(C)c1)C(C)(C)C (centres unmarked) [RG-115823]	–	–	–	0.933	1440	1050	20
CCCC(N(NC(=O)c1cccc(OC)c1C)C(=O)c1cc(OC)c(C)c(OC)c1)C(C)(C)C (centres unmarked) [RG-115824]	–	–	–	0.806	895	737	46
CCCC(N(NC(=O)c1cccc(OC)c1CC)C(=O)c1cc(OC)c(C)c(OC)c1)C(C)(C)C (centres unmarked) [RG-115829, 3,5-Dimethoxy-4-methyl-benzoic acid N-(1-tert-butyl-butyl)-N′-(2-ethyl-3-methoxy-benzoyl)-hydrazide]	58	1440	319	0.937	–	–	–
CCCC(N(NC(=O)c1cccc(OC)c1CC)C(=O)c1cc(C)cc(C)c1)C(C)(C)C (centres unmarked) [RG-115830]	–	–	–	1.020	1604	983	45
CCc1c(OC)cccc1C(=O)NN(C(=O)c1cc(OC)c(C)c(OC)c1)C(CC)C(C)(C)C (centres unmarked) [RG-115831]	–	–	–	0.937	1481	544	102
CCc1c(OC)cccc1C(=O)NN(C(=O)c1cc(C)cc(C)c1)C(CC)C(C)(C)C (centres unmarked) [RG-115832]	–	–	–	1.002	1564	621	37

From US9102648B1, “Bioavailable diacylhydrazine ligands for modulating the expression of exogenous genes via an ecdysone receptor complex” (Intrexon Corporation, priority 2003, dated 2015)
